Data: US7517840B2, “Optimized perfumery for rinse-off products” (Givaudan Fragrances Corporation, priority 2005, dated 2009)
“Also recorded” adds a separate entry of the source. Where two headings read alike, the source gives them in different places.

Experiments:
[1] = Calculated pseudo-acceleration (Γ) of odorants in water, water-air and air
From the text: In the analysis of the volatility of odorants, several variables are found to be important. First, the vapor pressure of the odorant is an important measure of its volatility. The product of the odorant's activity coefficient γ in the partition its mole fraction X and its pure vapor pressure value Pv, gives the odorant's relative vapor pressure. A second important factor for volatility is the diffusivity D12 of the odorant in the considered media: water, vapor phase and subsequently air.
Other important variables to consider are the molecular weight Mw, of the odorant and its density in the partition ρl and in the solvent vapor state ρv. The final variable to consider is an energy parameter in the partition state. The energy difference ε12=ε12(polar)−ε12o(non-polar) is proportional to the partition coefficient of an odorant in a polar solvent such as water, and a water immiscible solvent such as octanol, benzene and paraffin liquid. The energy ε12 is called the partition energy and can be correlated to the clogP value of odorants.
The five variables D12, Pv, Mw, ρv and ε12 and the three dimensional variables indicate that there can be 5−3=2 dimensional variables which describe Newton's law. The easiest separation is to break the acceleration vector into 2 dimensional quantities: a frequency or first order rate constant (1/time) and a velocity (distance/time) term.
The velocity group can be formed from the vapor pressure and density. Since pressure has units of mass*distance/distance^2*time^2, and density has units of mass/distance^3, the ratio of the two has units of velocity squared. The square root gives the desired velocity.
The first order rate constant can be formed from the variables Mw, D12 and ε12. Since the partition energy ε12 has dimensions of calories per mole (mass.length^2/mole.time^2) and the diffusivity coefficient D12 has a dimension of distance^2 per time, the ratio yields exactly a molecular weight unit per time t. The energy can be made dimensionless by dividing by the gas constant k and temperature T. The remaining variable D12 can be made to a frequency by dividing by a cross sectional area L^2. A molecular area calculated from the liquid molar volume could represent this area.
Pseudo acceleration values are also closely linked to the ability of an odorant to travel through headspace once it is airborne in addition to its ability to migrate through the water and water-air partitions.

[2] = GC-MS headspace release profile of perfume in shampoo, 1/100 dilution in water; type: physicochemical; conditions: Tropical Fruit Perfume
Description: Experimental Procedure: Individual odorant to be tested was added to 20 g of shampoo formulation (see formula below in Table 4) at 0.1%.
A 10 gram sample of formulation and fragrance was added to an empty 1000 ml pyrex beaker. This beaker was then filled with 1000 ml of 120 F tap water. Beaker with diluted shampoo sample was then immediately placed into a semi-enclosed plexiglass chamber.
Headspace Sampling: Once beaker was placed into chamber a Carboxan SPME field fiber was held at the top-side opening of the chamber over the beaker containing the sample. […] […] Top of plexiglass chamber was held open for entire 5 minutes of headspace sampling.

[3] = cited from earlier work
[4] = cited from earlier work; remark: listed apart in the source
[5] = Randebrock 1986; cited from earlier work

release category by Γ [1] | GC Abundance ([2]; 20 seconds) | GC Abundance ([2]; 30 seconds) | GC Abundance ([2]; 40 seconds) | GC Abundance ([2]; 50 seconds) | Compound | Boiling Point ([4]; Table 33) [deg C.] | ODT ([3]; Table 32, citrus note) | other results
sustained release |  |  |  |  | CCC=CCCC=CCO [2,6 NONADIEN-1-OL] |  |  | ODT ([3]; Table 26, cucumber-melon note): 50 ppb or less; odor detection threshold value in water [3]: 1 part per billion
sustained release | 5000 | 14000 | 18000 | 20000 | CC(=O)OC1CCCCC1C(C)(C)C (stereo not shown) [VERDOX] |  |  | 
sustained release |  |  |  |  | CC(C)=CCCC(C)=CCS [THIOGERANIOL, 3,7-Dimethyl-2,6-octadien-1-thiol] | 250 | 50 ppb or less | Boiling Point [4]: 250 °C
flash release |  |  |  |  | CCCCC/C=C/CCC=O [TRANS-4-DECEN-1-AL] | 200 | 50 ppb or less | 
flash release |  |  |  |  | CCC=CCCC=CC=O [2,6-NONADIENAL] |  |  | ODT ([3]; Table 26, cucumber-melon note): 50 ppb or less; odor detection threshold values in water [3]: 0.01 ppb
 |  |  |  |  | CCCCCCCCCCC=O [1-undecanal] |  |  | experimental odor detection threshold in air [5]: 0.00054 mg/m^3
flash-release | 3100 | 3100 | 2000 | 1500 | CCOC(=O)C(C)CC (stereo not shown) [ETHYL 2-METHYLBUTYRATE, Ethyl 2-methylbutyrate] |  |  | exp ODT water ([3]; Booleans database): 0.1-0.3 ppb; ODT ([3]; Table 17, apple note compounds): 50 ppb or less; GC Abundance ([2]; 10 seconds): 3000

Compound | release category by Γ [1] | GC Abundance ([2]; 20 seconds) | GC Abundance ([2]; 30 seconds) | GC Abundance ([2]; 40 seconds) | GC Abundance ([2]; 50 seconds) | Boiling Point ([4]; Table 33) [deg C.] | ODT ([3]; Table 32, citrus note) | other results
C=C(C)[C@H]1CC=C(C)CC1 [d-LIMONENE, d-1-Methyl-4-isopropenyl-1-cyclohexene] | flash release; also recorded: flash-release | 7000 | 7000 | 5000 | 4000 |  |  | GC Abundance ([2]; 5 seconds): 7000; GC Abundance ([2]; 10 seconds): 7000
CC1=CCC(C(C)(C)S)CC1 (stereo not shown) | flash release |  |  |  |  | 229 | 50 ppb or less | 
